“And” between values parts separate entries of the source, which are not always exact repeats. Equal entries are not always repeated. Peptide text beside a SMILES is read from it.

Assay [1] relates to H-Ferritin. As to the kind of experiment: H-Ferritin gene expression in hemin-treated astrocytes by qRT-PCR. Type of assay: cell-based, human. As to conditions: oligopeptide 10 μM; for H-Ferritin Fold Change, Average / H-Ferritin Fold Change (individual runs): SPH 160 μM, collagen control 160 μM, after 6 hr hemin; for H-Ferritin Fold Change (individual runs): GAPDH housekeeping, normalized to control wells. As for the experimental part: (§1) Immortalized human astrocytes (P10251-IM) were obtained from Innoprot, Spain and prepared under conditions recommended by the supplier. At 90% confluency, the P10251-IM cells were rinsed with 8 ml of DPBS and 2 ml of the T/E Solution (prepared as per Innoprot procedure), then added into an […] and gently rocked so that the P10251-IM cells would be completely covered. The flask was subsequently incubated at 37° C. for 2 minutes. Then 5 ml of fetal bovine serum (FBS) and the T/E solution from the flask were added into a 50 ml conical centrifuge tube. The flask was incubated for an additional 2 minutes, and the P10251-IM cells dislodged from the surface by gentle tapping. The P10251-IM cells were then transferred to the 50 ml conical centrifuge tube with 5 ml of TNS solution. The tube was centrifuged at 1000 rpm for 5 minutes. Then the P10251-IM cells were resuspended in the culture medium, counted, and plated in a poly-L-lysine-coated culture plate at 1×10^4 cell density. Cells were tested after they were incubated for 21 days in vitro.
(§2) Confluent P10251-IM cell cultures were washed and then pre-treated with medium alone, or medium supplemented with SPH (160 μM) or an oligopeptide (10 μM) for 24 hr at 37° C. Commercial collagen peptide (Vital Protein) at 160 μM concentration and sterile water were used as negative controls. The P10251-IM cells were subsequently treated with 30 μM hemin in serum-free medium consisting of MEM with 10 mM glucose (MEM10) for 6 hrs.
(§3) L-Ferritin and H-Ferritin gene expression were then quantified. Briefly, after 6 hr incubation with hemin, the astrocytes were lysed, and RNA was extracted using the Qiagen lipid mini kit. The expression of both genes (L-ferritin and H-ferritin) involved in iron homeostasis was assessed by qRT-PCR. Fold changes were calculated using the ΔCt method, using GAPDH as the housekeeping gene. Fold changes were normalized to expression levels in control wells. Experiments were run in triplicate.
(§4) The primers used for amplification of cDNA were: […]
A general note: In qPCR the cycle at which signal appears reflects the starting amount.

Assay [2] has as its system FTH1. Briefly: FTH1 mRNA levels in mouse bone marrow-derived macrophages (qPCR). Type of assay: cell-based. Conditions: murine macrophages; for FTH1 Levels, Fe-Normal / FTH1 Levels, DFO (−Fe) / FTH1 Levels, Fe-NTA (+Fe): SPH 160 μM or oligopeptide 10 μM; for FTH1 Levels, Fe-Normal: normal iron, normalized to Hprt1, relative to control samples; for FTH1 Levels, DFO (−Fe): with DFO 100 μM 16 h; for FTH1 Levels, DFO (−Fe) / FTH1 Levels, Fe-NTA (+Fe): relative to control samples; for FTH1 Levels, Fe-NTA (+Fe): with Fe-NTA 8 h; for FTH1 mRNA expression: normal and iron-depleted conditions. As for the experimental part: (§5) Cell Cultures. MBMMs (C57BL/6 genetic background) were obtained from CellBiologics.net and prepared under the conditions recommended by the supplier. Isolated MBMMs were seeded onto 10 cm diameter Petri dishes and grown in RPMI-GlutaMAX™ medium (Invitrogen) supplemented with 10% heat-inactivated FCS (Gibco), 10% L-cell-conditioned medium (source of colony-stimulating factor 1), 2 mM L-glutamine, 50 U/mL penicillin, and […] streptomycin. At 4 days after seeding, the adherent MBMMs were rinsed twice with Hanks balance salt solution (HBSS), and the medium was renewed for 7 days, at which point the MBMMs had completely differentiated into macrophages that were ready for downstream experimental applications.
(§6) Cell Treatments. SPH (average molecular weight of about 1100 Daltons) and oligopeptides were dissolved in sterile water to obtain […] stock solutions. The SPH and oligopeptides were further diluted in cell culture media to reach final concentrations of 160 μM SPH and 10 μM oligopeptide per Petri dish.
(§7) Murine macrophages were incubated with SPH or an oligopeptide in the presence or absence of an iron-nitrilotriacetate solution (Fe-NTA; FeCl3 (100 μM)-NTA (400 μM)) for 8 h at 37° C. to increase cellular iron concentration. Murine macrophages were also incubated with SPH or an oligopeptide in the presence or absence of desferrioxamine mesylate (DFO; 100 μM) for 16 h at 37° C. to decrease cellular iron concentration. Commercial collagen peptide (Vital Protein) at a 10 μM concentration and sterile water were used as negative controls.
Measurement of Gene Expression. Total RNA was extracted from macrophages using the Qiagen miRNeasy Mini Kit for purification of total RNA from animal and human cells and tissues according to the manufacturer's instructions. About 2 μg of total RNA was transcribed into cDNA, after RT2 RNA QC PCR Array was run to confirm the quality of the RNA samples followed by gene expression analysis using RT2 Profiler PCR array.
as §4
All reactions were performed in a total reaction volume of 20 μl with iQ™ SYBR® Green Supermix (Bio-Rad) and carried out in the iQ™5 instrument (Bio-Rad). Baseline thresholds were calculated by Bio-Rad iQ5 program, and the threshold cycles (Ct) were used, wherein Ct values for the Fth1 gene were normalized to expression levels of Hprt1 (housekeeping) gene. Results are shown in Table 8-2 as n-fold difference relative to the control samples.

Assay [3] deals with L-Ferritin. As to the kind of experiment: L-Ferritin gene expression in hemin-treated astrocytes by qRT-PCR. Type of assay: cell-based, human. Conditions: SPH 160 μM, oligopeptide 10 μM, collagen control 160 μM, after 6 hr hemin; for L-Ferritin Fold Change (individual runs): GAPDH housekeeping, normalized to control wells. As for the experimental part:
as §1, §2, §3, §4

Assay [4] concerns H-Ferritin. Briefly: H-Ferritin protein levels in mouse bone marrow-derived macrophages (ELISA). As to conditions: murine macrophages; for H-Ferritin Protein Levels, Fe-Normal / H-Ferritin Protein Levels, DFO (−Fe) / H-Ferritin Protein Levels, Fe-NTA (+Fe): SPH 160 μM or oligopeptide 10 μM; for H-Ferritin Protein Levels, Fe-Normal: normal iron, average of triplicate; for H-Ferritin Protein Levels, DFO (−Fe): with DFO 100 μM 16 h; for H-Ferritin Protein Levels, Fe-NTA (+Fe): with Fe-NTA 8 h; for intracellular H-Ferritin protein levels: normal and iron-depleted conditions. Type of assay: cell-based. As to the method: as §5, §6, §7
Quantification of H-Ferritin. Macrophages were washed with cold saline and lysed with 400 μl of a solution containing 50 mM HEPES (Gibco), 1% IGEPAL C-630 (Sigma), and 1% proteases inhibitor cocktail P840 (Sigma). H-Ferritin concentrations in the lysates were determined by ELISA using polyclonal antibodies raised against mouse recombinant H-ferritin subunits and calibrated with the corresponding recombinant homopolymers. The specificity and the absence of cross-reactivity of the antibodies are documented. The results were expressed as (ng ferritin) per (mg total protein) in the cell lysate and shown as an average of triplicate readings in Table 8-1. Total protein content was measured using the BCA protein assay kit (Pierce).

In the case of `CC(C)C[C@H](NC(=O)[C@H](CCC(=O)O)NC(=O)CNC(=O)[C@H](CO)NC(=O)[C@H](CCC(=O)O)NC(=O)[C@H](CCC(=O)O)NC(=O)[C@@H](N)CCCNC(=N)N)C(=O)O` [FT-008, REESGEL] (H-REESGEL-OH), in assay [1], the “H-Ferritin Fold Change, Average” value came out at 4.2 fold; the “H-Ferritin Fold Change (individual runs)” value was 4.1 fold (2×) and 4.4 fold; the “increases in H-Ferritin gene expression” value worked out at 4.0 fold. Moreover, in assay [2], the “FTH1 Levels, Fe-Normal” value worked out at 2.5 n-fold; the “FTH1 Levels, DFO (−Fe)” value turned out to be 3.4 n-fold; the “FTH1 Levels, Fe-NTA (+Fe)” value came out at 2.7 n-fold; the “FTH1 mRNA expression” value was “substantial increases”. In assay [3], the “L-Ferritin Fold Change, Average” value was 1.6 fold; the “L-Ferritin Fold Change (individual runs)” value was 1.8 fold and 1.6 fold and 1.5 fold. For the same compound, in assay [4], the “H-Ferritin Protein Levels, Fe-Normal” value stood at 158 ng/mg total protein; the “H-Ferritin Protein Levels, DFO (−Fe)” value is on record as 122 ng/mg total protein; the “H-Ferritin Protein Levels, Fe-NTA (+Fe)” value is recorded as 200 ng/mg total protein; the “intracellular H-Ferritin protein levels” value is given as “substantial increases”.

With `CSCC[C@H](NC(=O)[C@@H]1CCCN1C(=O)[C@H](CCCCN)NC(=O)[C@H](CC(=O)O)NC(=O)[C@H](CO)NC(=O)[C@H](CCC(=O)O)NC(=O)[C@H](CCC(=O)O)NC(=O)[C@@H](N)CCCNC(=N)N)C(=O)N[C@@H](Cc1ccc(O)cc1)C(=O)O` [FT-006, REESDKPMY] (H-REESDKPMY-OH), in assay [1], the “H-Ferritin Fold Change, Average” value is on record as 3.0 fold; the “H-Ferritin Fold Change (individual runs)” value was 2.9 fold (2×) and 3.1 fold; the “increases in H-Ferritin gene expression” value is recorded as 3.0 fold. Moreover, in assay [2], the “FTH1 Levels, Fe-Normal” value was determined as 2.7 n-fold; the “FTH1 Levels, DFO (−Fe)” value is 3.3 n-fold; the “FTH1 Levels, Fe-NTA (+Fe)” value was 2.8 n-fold; the “FTH1 mRNA expression” value is given as “substantial increases”. In assay [3], the “L-Ferritin Fold Change, Average” value is listed as 1.3 fold and the “L-Ferritin Fold Change (individual runs)” value was 1.3 fold. In addition, in assay [4], the “H-Ferritin Protein Levels, Fe-Normal” value is on record as 174 ng/mg total protein; the “H-Ferritin Protein Levels, DFO (−Fe)” value worked out at 105 ng/mg total protein; the “H-Ferritin Protein Levels, Fe-NTA (+Fe)” value is 257 ng/mg total protein; the “intracellular H-Ferritin protein levels” value is given as “substantial increases”.

As for `N=C(N)NCCC[C@H](NC(=O)[C@@H]1CCCN1)C(=O)N[C@@H](CCC(=O)O)C(=O)N[C@@H](CCC(=O)O)C(=O)N[C@@H](CO)C(=O)N[C@@H](CC(=O)O)C(=O)N[C@@H](CCCCN)C(=O)N1CCC[C@H]1C(=O)O` [FT-007, PREESDKP] (H-PREESDKP-OH), in assay [1], the “H-Ferritin Fold Change, Average” value worked out at 3.3 fold; the “H-Ferritin Fold Change (individual runs)” value was 3.5 fold and 3.2 fold and 3.3 fold; the “increases in H-Ferritin gene expression” value is given as 3.3 fold. In assay [2], the “FTH1 Levels, Fe-Normal” value was 1.9 n-fold; the “FTH1 Levels, DFO (−Fe)” value worked out at 3.1 n-fold; the “FTH1 Levels, Fe-NTA (+Fe)” value is given as 2.9 n-fold; the “FTH1 mRNA expression” value is listed as “substantial increases”. In assay [3], the “L-Ferritin Fold Change, Average” value is 1.1 fold; the “L-Ferritin Fold Change (individual runs)” value is 1.1 fold and 1.2 fold and 1.0 fold. In assay [4], the “H-Ferritin Protein Levels, Fe-Normal” value was determined as 142 ng/mg total protein; the “H-Ferritin Protein Levels, DFO (−Fe)” value is reported as 111 ng/mg total protein; the “H-Ferritin Protein Levels, Fe-NTA (+Fe)” value is on record as 197 ng/mg total protein; the “intracellular H-Ferritin protein levels” value is listed as “substantial increases”.

For the origin of these results see patent US20250101061A1, “UPREGULATION OF FERRITIN HEAVY CHAIN 1 EXPRESSION” (HBC Immunology Inc., priority 2022, published 2025).
